Source: the NIST ThermoML archive (doi:10.1021/je050050p)
Numbers after ± are expanded uncertainties.

Assay: xn = mol fraction of the nth substance listed
Conditions: Liquid, Vibrating tube method

## CN(C)C=O [dimethylformamide] + O=C=O
333 K, 18021 kPa, x2 = 0.4502
  mass density: 942.21 ± 0.41 kg/m3
333 K, 19006 kPa, x2 = 0.4502
  mass density: 943.4 ± 0.41 kg/m3
333 K, 19008 kPa, x2 = 0.4068
  mass density: 942.75 ± 0.41 kg/m3
333 K, 20008 kPa, x2 = 0.4068
  mass density: 943.81 ± 0.41 kg/m3
333 K, 20021 kPa, x2 = 0.4502
  mass density: 944.58 ± 0.41 kg/m3
333 K, 20981 kPa, x2 = 0.4068
  mass density: 944.88 ± 0.41 kg/m3
333 K, 21001 kPa, x2 = 0.4502
  mass density: 945.74 ± 0.41 kg/m3
333 K, 22001 kPa, x2 = 0.4068
  mass density: 945.96 ± 0.41 kg/m3
333 K, 22027 kPa, x2 = 0.4502
  mass density: 946.9 ± 0.41 kg/m3
333 K, 22996 kPa, x2 = 0.4068
  mass density: 947.02 ± 0.41 kg/m3
333 K, 23019 kPa, x2 = 0.4502
  mass density: 948.04 ± 0.41 kg/m3
333 K, 24013 kPa, x2 = 0.4068
  mass density: 948.07 ± 0.41 kg/m3
333 K, 24013 kPa, x2 = 0.4502
  mass density: 949.18 ± 0.41 kg/m3
333 K, 25001 kPa, x2 = 0.4068
  mass density: 949.09 ± 0.41 kg/m3
333 K, 25015 kPa, x2 = 0.4502
  mass density: 950.28 ± 0.41 kg/m3
342.89 K, 10992 kPa, x2 = 0.6235
  mass density: 886.15 ± 0.43 kg/m3
342.89 K, 12012 kPa, x2 = 0.6235
  mass density: 889.74 ± 0.43 kg/m3
342.89 K, 13020 kPa, x2 = 0.6235
  mass density: 893.05 ± 0.43 kg/m3
342.89 K, 14010 kPa, x2 = 0.6235
  mass density: 896.16 ± 0.47 kg/m3
342.89 K, 15018 kPa, x2 = 0.6235
  mass density: 899.25 ± 0.43 kg/m3
342.89 K, 16005 kPa, x2 = 0.6235
  mass density: 902.14 ± 0.43 kg/m3
342.89 K, 17023 kPa, x2 = 0.6235
  mass density: 905.02 ± 0.43 kg/m3
342.89 K, 18015 kPa, x2 = 0.6235
  mass density: 907.74 ± 0.43 kg/m3
342.89 K, 19032 kPa, x2 = 0.6235
  mass density: 910.42 ± 0.43 kg/m3
342.89 K, 20044 kPa, x2 = 0.6235
  mass density: 913.05 ± 0.43 kg/m3
342.89 K, 21008 kPa, x2 = 0.6235
  mass density: 915.46 ± 0.43 kg/m3
342.89 K, 21997 kPa, x2 = 0.6235
  mass density: 917.87 ± 0.43 kg/m3
342.89 K, 23022 kPa, x2 = 0.6235
  mass density: 920.31 ± 0.43 kg/m3
342.89 K, 24005 kPa, x2 = 0.6235
  mass density: 922.57 ± 0.43 kg/m3
342.89 K, 25050 kPa, x2 = 0.6235
  mass density: 924.92 ± 0.43 kg/m3
342.92 K, 9047 kPa, x2 = 0.4268
  mass density: 916.56 ± 0.41 kg/m3
342.92 K, 10045 kPa, x2 = 0.4268
  mass density: 917.97 ± 0.41 kg/m3
342.92 K, 11042 kPa, x2 = 0.4268
  mass density: 919.28 ± 0.41 kg/m3
342.92 K, 12037 kPa, x2 = 0.4268
  mass density: 920.66 ± 0.41 kg/m3
342.92 K, 13020 kPa, x2 = 0.4268
  mass density: 921.93 ± 0.41 kg/m3
342.92 K, 13997 kPa, x2 = 0.4268
  mass density: 923.27 ± 0.41 kg/m3
342.92 K, 14981 kPa, x2 = 0.4268
  mass density: 924.53 ± 0.41 kg/m3
342.92 K, 15034 kPa, x2 = 0.9311
  mass density: 711.76 ± 0.59 kg/m3
342.92 K, 15061 kPa, x2 = 0.8091
  mass density: 832.64 ± 0.8 kg/m3
342.92 K, 15988 kPa, x2 = 0.8091
  mass density: 839.54 ± 0.47 kg/m3
342.92 K, 15991 kPa, x2 = 0.4268
  mass density: 925.79 ± 0.41 kg/m3
342.92 K, 16002 kPa, x2 = 0.9311
  mass density: 729.81 ± 0.57 kg/m3
342.92 K, 17002 kPa, x2 = 0.4268
  mass density: 927.11 ± 0.41 kg/m3
342.92 K, 17015 kPa, x2 = 0.9311
  mass density: 745.62 ± 0.55 kg/m3
342.92 K, 17027 kPa, x2 = 0.8091
  mass density: 845.55 ± 0.46 kg/m3
342.92 K, 18016 kPa, x2 = 0.8091
  mass density: 851.1 ± 0.46 kg/m3
342.92 K, 18024 kPa, x2 = 0.9311
  mass density: 759.3 ± 0.53 kg/m3
342.92 K, 18025 kPa, x2 = 0.4268
  mass density: 928.36 ± 0.41 kg/m3
342.92 K, 19002 kPa, x2 = 0.9311
  mass density: 770.95 ± 0.52 kg/m3
342.92 K, 19028 kPa, x2 = 0.8091
  mass density: 856.53 ± 0.46 kg/m3
342.92 K, 19044 kPa, x2 = 0.4268
  mass density: 929.6 ± 0.41 kg/m3
342.92 K, 19999 kPa, x2 = 0.4268
  mass density: 930.83 ± 0.41 kg/m3
342.92 K, 20000 kPa, x2 = 0.9311
  mass density: 781.74 ± 0.51 kg/m3
342.92 K, 20057 kPa, x2 = 0.8091
  mass density: 861.77 ± 0.45 kg/m3
342.92 K, 20984 kPa, x2 = 0.4268
  mass density: 931.96 ± 0.41 kg/m3
342.92 K, 21012 kPa, x2 = 0.8091
  mass density: 866.52 ± 0.45 kg/m3
342.92 K, 21034 kPa, x2 = 0.9311
  mass density: 791.87 ± 0.51 kg/m3
342.92 K, 21992 kPa, x2 = 0.8091
  mass density: 871.08 ± 0.45 kg/m3
342.92 K, 22002 kPa, x2 = 0.4268
  mass density: 933.2 ± 0.42 kg/m3
342.92 K, 22002 kPa, x2 = 0.9311
  mass density: 800.53 ± 0.5 kg/m3
342.92 K, 22999 kPa, x2 = 0.8091
  mass density: 875.54 ± 0.45 kg/m3
342.92 K, 23014 kPa, x2 = 0.9311
  mass density: 809.02 ± 0.5 kg/m3
342.92 K, 23042 kPa, x2 = 0.4268
  mass density: 934.44 ± 0.42 kg/m3
342.92 K, 23981 kPa, x2 = 0.4268
  mass density: 935.53 ± 0.42 kg/m3
342.92 K, 24017 kPa, x2 = 0.9311
  mass density: 816.82 ± 0.49 kg/m3
342.92 K, 24029 kPa, x2 = 0.8091
  mass density: 879.9 ± 0.45 kg/m3
342.92 K, 25008 kPa, x2 = 0.9311
  mass density: 824.06 ± 0.49 kg/m3
342.92 K, 25020 kPa, x2 = 0.8091
  mass density: 883.99 ± 0.45 kg/m3
342.92 K, 25047 kPa, x2 = 0.4268
  mass density: 936.75 ± 0.42 kg/m3
342.93 K, 7012 kPa, x2 = 0.2876
  mass density: 914.85 ± 0.41 kg/m3
342.93 K, 7999 kPa, x2 = 0.2876
  mass density: 915.95 ± 0.41 kg/m3
342.93 K, 9007 kPa, x2 = 0.2876
  mass density: 917.04 ± 0.41 kg/m3
342.93 K, 10005 kPa, x2 = 0.2876
  mass density: 918.13 ± 0.41 kg/m3
342.93 K, 11003 kPa, x2 = 0.2876
  mass density: 919.16 ± 0.41 kg/m3
342.93 K, 12011 kPa, x2 = 0.2876
  mass density: 920.23 ± 0.41 kg/m3
342.93 K, 13016 kPa, x2 = 0.2876
  mass density: 921.27 ± 0.41 kg/m3
342.93 K, 14012 kPa, x2 = 0.2876
  mass density: 922.31 ± 0.41 kg/m3
342.93 K, 15013 kPa, x2 = 0.2876
  mass density: 923.35 ± 0.41 kg/m3
342.93 K, 16000 kPa, x2 = 0.2876
  mass density: 924.33 ± 0.41 kg/m3
342.93 K, 17024 kPa, x2 = 0.2876
  mass density: 925.34 ± 0.41 kg/m3
342.93 K, 18001 kPa, x2 = 0.2876
  mass density: 926.31 ± 0.41 kg/m3
342.93 K, 19036 kPa, x2 = 0.2876
  mass density: 927.32 ± 0.42 kg/m3
342.93 K, 20015 kPa, x2 = 0.2876
  mass density: 928.27 ± 0.42 kg/m3
342.93 K, 21009 kPa, x2 = 0.2876
  mass density: 929.23 ± 0.42 kg/m3
